# Reference: article PMC7619385 (ACS infectious diseases, 2025)
# Target: T1, LmxCLK1 (Leishmania mexicana, UniProt E9AMP2)
# T1 sequence (E9AMP2 1-422): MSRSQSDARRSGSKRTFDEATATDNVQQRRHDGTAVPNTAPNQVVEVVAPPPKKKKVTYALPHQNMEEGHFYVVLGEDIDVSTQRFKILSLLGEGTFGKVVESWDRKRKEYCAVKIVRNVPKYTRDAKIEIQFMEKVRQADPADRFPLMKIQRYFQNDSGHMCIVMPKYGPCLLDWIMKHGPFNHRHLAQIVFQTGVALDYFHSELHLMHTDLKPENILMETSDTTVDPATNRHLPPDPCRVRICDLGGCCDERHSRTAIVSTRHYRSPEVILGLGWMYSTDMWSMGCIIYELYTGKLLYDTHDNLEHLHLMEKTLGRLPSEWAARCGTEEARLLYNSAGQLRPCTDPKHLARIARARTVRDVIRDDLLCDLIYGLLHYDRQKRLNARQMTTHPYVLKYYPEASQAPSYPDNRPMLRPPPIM
# Experiment: biochemical
# Type: binding
# Conditions: not given
Molecule,ΔTm Average,ΔTm Run 1 [°C],ΔTm Run 2
NC(=O)c1cnc(N[C@@H]2CCCC[C@@H]2N)nc1Nc1cccc(-n2nccn2)c1 [PRT062607 (P505-15)],1.3 °C,1.3,1.3 °C
Cn1cc(-c2cnn3c(N)c(Br)c([C@@H]4CCCNC4)nc23)cn1 [MK-8776 (SCH 900776)],0.3 °C,0.5,0 °C
CN(c1ncccc1CNc1nc(Nc2ccc3c(c2)CC(=O)N3)ncc1C(F)(F)F)S(C)(=O)=O [PF-00562271],-0.1,0,-0.3

# Same assay, conditions: DSF, 10 µM compound, 2 µM LmxCLK1, Run 1
row,Molecule,ΔTm Run 1 [°C]
1,COc1cc2c(Oc3ccc4[nH]c(C)cc4c3F)ncnc2cc1OCCCN1CCCC1 [Cediranib (AZD2171)],0.5
2,CS(=O)(=O)CCNCc1ccc(-c2ccc3ncnc(Nc4ccc(OCc5cccc(F)c5)c(Cl)c4)c3c2)o1.Cc1ccc(S(=O)(=O)O)cc1.Cc1ccc(S(=O)(=O)O)cc1 [Lapatinib (GW-572016) Ditosylate],0.3
3,N#C/C(=C(/N)Sc1ccc(N)cc1)c1ccccc1C(F)(F)F [SL-327],-0.2
4,O=C(NC[C@H](O)CO)c1ccncc1Nc1ccc(I)cc1F [Pimasertib (AS-703026)],0.2
5,Cc1c(F)cc(C(=O)NC2CC2)cc1-c1ccc(C(=O)NCC(C)(C)C)cn1 [Losmapimod (GW856553X)],0.4
6,PHT-427,0.4
7,Cc1cc2c(F)c(Oc3ncnn4cc(OC[C@@H](C)OC(=O)[C@H](C)N)c(C)c34)ccc2[nH]1 [Brivanib Alaninate (BMS-582664)],0.3
8,COc1ccc2c(Oc3ccc(NC(=O)c4c(C)n(CC(C)(C)O)n(-c5ccccc5)c4=O)nc3)ccnc2c1 [AMG-458],0.9
9,Oc1ccc(-c2nc(-c3ccc(F)cc3)c(-c3ccncc3)[nH]2)cc1 [SB202190 (FHPI)],0.2
10,Cc1cc(Nc2cc(N3CCN(C)CC3)nc(Sc3ccc(NC(=O)C4CC4)cc3)n2)n[nH]1 [VX-680 (Tozasertib)],-0.3
11,NCC(=O)Nc1ccc(-n2nc(C(F)(F)F)cc2-c2ccc3c(ccc4ccccc43)c2)cc1 [OSU-03012 (AR-12)],-0.1

# Same assay, conditions: DSF, 10 µM compound, 2 µM LmxCLK1, Run 1; read-out: ΔTm Run 1
row,Molecule,ΔTm at 10 µM [°C]
1,CNC(=O)c1ccc(C)c(-n2c(C)cc(OCc3ccc(F)cc3F)c(Br)c2=O)c1 [PH-797804],-0.1
2,Cc1cc(C(=O)NOCCO)c(Nc2ccc(I)cc2F)n(C)c1=O [AZD8330],0.5
3,Oc1c2ccccc2c2c3c(cccc13)N=N2 [SP600125],0.1
4,CO[C@@H](C(=O)N1Cc2n[nH]c(NC(=O)c3ccc(N4CCN(C)CC4)cc3)c2C1)c1ccccc1 [Danusertib (PHA-739358)],0.3
5,COCC(=O)NC/C=C/c1ccc2ncnc(Nc3ccc(Oc4ccc(C)nc4)c(C)c3)c2c1 [CP-724714],0.6
6,Cc1cc(Nc2cc(N3CCN(C)CC3)nc(/C=C/c3ccccc3)n2)n[nH]1 [ENMD-2076],0.3

# Same assay, conditions: DSF, 10 µM compound, 2 µM LmxCLK1, Run 2
row,Molecule,ΔTm Run 2 [°C]
1,COc1cc2c(Oc3ccc4[nH]c(C)cc4c3F)ncnc2cc1OCCCN1CCCC1 [Cediranib (AZD2171)],0.1
2,CS(=O)(=O)CCNCc1ccc(-c2ccc3ncnc(Nc4ccc(OCc5cccc(F)c5)c(Cl)c4)c3c2)o1.Cc1ccc(S(=O)(=O)O)cc1.Cc1ccc(S(=O)(=O)O)cc1 [Lapatinib (GW-572016) Ditosylate],0.0
3,N#C/C(=C(/N)Sc1ccc(N)cc1)c1ccccc1C(F)(F)F [SL-327],-0.2
4,O=C(NC[C@H](O)CO)c1ccncc1Nc1ccc(I)cc1F [Pimasertib (AS-703026)],-0.1
5,Cc1c(F)cc(C(=O)NC2CC2)cc1-c1ccc(C(=O)NCC(C)(C)C)cn1 [Losmapimod (GW856553X)],0.1
6,PHT-427,0.3
7,Cc1cc2c(F)c(Oc3ncnn4cc(OC[C@@H](C)OC(=O)[C@H](C)N)c(C)c34)ccc2[nH]1 [Brivanib Alaninate (BMS-582664)],0.1
8,COc1ccc2c(Oc3ccc(NC(=O)c4c(C)n(CC(C)(C)O)n(-c5ccccc5)c4=O)nc3)ccnc2c1 [AMG-458],1.0
9,Oc1ccc(-c2nc(-c3ccc(F)cc3)c(-c3ccncc3)[nH]2)cc1 [SB202190 (FHPI)],0.4
10,Cc1cc(Nc2cc(N3CCN(C)CC3)nc(Sc3ccc(NC(=O)C4CC4)cc3)n2)n[nH]1 [VX-680 (Tozasertib)],-0.4
11,NCC(=O)Nc1ccc(-n2nc(C(F)(F)F)cc2-c2ccc3c(ccc4ccccc43)c2)cc1 [OSU-03012 (AR-12)],0.2

# Same assay, conditions: DSF, 10 µM compound, 2 µM LmxCLK1, Run 2; read-out: ΔTm Run 2
row,Molecule,ΔTm at 10 µM [°C]
1,CNC(=O)c1ccc(C)c(-n2c(C)cc(OCc3ccc(F)cc3F)c(Br)c2=O)c1 [PH-797804],-0.3
2,Cc1cc(C(=O)NOCCO)c(Nc2ccc(I)cc2F)n(C)c1=O [AZD8330],0.2
3,Oc1c2ccccc2c2c3c(cccc13)N=N2 [SP600125],-0.3
4,CO[C@@H](C(=O)N1Cc2n[nH]c(NC(=O)c3ccc(N4CCN(C)CC4)cc3)c2C1)c1ccccc1 [Danusertib (PHA-739358)],0.1
5,COCC(=O)NC/C=C/c1ccc2ncnc(Nc3ccc(Oc4ccc(C)nc4)c(C)c3)c2c1 [CP-724714],0.2
6,Cc1cc(Nc2cc(N3CCN(C)CC3)nc(/C=C/c3ccccc3)n2)n[nH]1 [ENMD-2076],0.1

# Same assay, conditions: DSF, 10 µM compound, 2 µM LmxCLK1, mean of two runs
row,Molecule,ΔTm Average [°C]
1,COc1cc2c(Oc3ccc4[nH]c(C)cc4c3F)ncnc2cc1OCCCN1CCCC1 [Cediranib (AZD2171)],0.3
2,CS(=O)(=O)CCNCc1ccc(-c2ccc3ncnc(Nc4ccc(OCc5cccc(F)c5)c(Cl)c4)c3c2)o1.Cc1ccc(S(=O)(=O)O)cc1.Cc1ccc(S(=O)(=O)O)cc1 [Lapatinib (GW-572016) Ditosylate],0.1
3,N#C/C(=C(/N)Sc1ccc(N)cc1)c1ccccc1C(F)(F)F [SL-327],-0.2
4,O=C(NC[C@H](O)CO)c1ccncc1Nc1ccc(I)cc1F [Pimasertib (AS-703026)],0.0
5,Cc1c(F)cc(C(=O)NC2CC2)cc1-c1ccc(C(=O)NCC(C)(C)C)cn1 [Losmapimod (GW856553X)],0.2
6,PHT-427,0.3
7,Cc1cc2c(F)c(Oc3ncnn4cc(OC[C@@H](C)OC(=O)[C@H](C)N)c(C)c34)ccc2[nH]1 [Brivanib Alaninate (BMS-582664)],0.2
8,COc1ccc2c(Oc3ccc(NC(=O)c4c(C)n(CC(C)(C)O)n(-c5ccccc5)c4=O)nc3)ccnc2c1 [AMG-458],1.0
9,Oc1ccc(-c2nc(-c3ccc(F)cc3)c(-c3ccncc3)[nH]2)cc1 [SB202190 (FHPI)],0.3
10,Cc1cc(Nc2cc(N3CCN(C)CC3)nc(Sc3ccc(NC(=O)C4CC4)cc3)n2)n[nH]1 [VX-680 (Tozasertib)],-0.3
11,NCC(=O)Nc1ccc(-n2nc(C(F)(F)F)cc2-c2ccc3c(ccc4ccccc43)c2)cc1 [OSU-03012 (AR-12)],0.0

# Same assay, conditions: DSF, 10 µM compound, 2 µM LmxCLK1, mean of two runs; read-out: ΔTm Average
row,Molecule,ΔTm at 10 µM [°C]
1,CNC(=O)c1ccc(C)c(-n2c(C)cc(OCc3ccc(F)cc3F)c(Br)c2=O)c1 [PH-797804],-0.2
2,Cc1cc(C(=O)NOCCO)c(Nc2ccc(I)cc2F)n(C)c1=O [AZD8330],0.3
3,Oc1c2ccccc2c2c3c(cccc13)N=N2 [SP600125],-0.1
4,CO[C@@H](C(=O)N1Cc2n[nH]c(NC(=O)c3ccc(N4CCN(C)CC4)cc3)c2C1)c1ccccc1 [Danusertib (PHA-739358)],0.2
5,COCC(=O)NC/C=C/c1ccc2ncnc(Nc3ccc(Oc4ccc(C)nc4)c(C)c3)c2c1 [CP-724714],0.4
6,Cc1cc(Nc2cc(N3CCN(C)CC3)nc(/C=C/c3ccccc3)n2)n[nH]1 [ENMD-2076],0.2

# Same assay, conditions: read-out: ΔTm Average
row,Molecule,ΔTm at 10 µM [°C]
1,O=C1Nc2ccccc2/C1=C1/Nc2ccccc2C1=O [Indirubin],0

# Same assay, conditions: read-out: ΔTm Run 1
row,Molecule,ΔTm at 10 µM [°C]
1,O=C1Nc2ccccc2/C1=C1/Nc2ccccc2C1=O [Indirubin],0.1

# Same assay, conditions: read-out: ΔTm Run 2
row,Molecule,ΔTm at 10 µM [°C]
1,O=C1Nc2ccccc2/C1=C1/Nc2ccccc2C1=O [Indirubin],-0.1
